The values below come from US20110195128A1, “TREATING OR PREVENTING GOUT” (priority 2008, published 2011).

The subject of one data set is urate peritonitis model. The data set can be described thus: Murine urate peritonitis model, total cellular influx. Format: in vivo, CD1 mice. The settings on record: mice fed for a week before i.p. 3 mg MSU crystals; lavage after four hours; GMP 0.05-0.5 g per kg in drinking water; G600 precursor 12.5-100% of total fat in diet. As for the experimental part:
Adult male CD1 mice (Vernon Jansen Unit, University of Auckland) were housed in conventional facilities with temperature control and 12 hour light/dark cycles. All protocols involving live animals were subjected to ethical review and a range of welfare score sheets and action plans were used to monitor and minimize the impact of the study on the animals. Mice were fed milk extracts for a week prior to induction of peritonitis. At least eight mice were used for each experimental condition. GMP was dissolved in drinking water at 0.05, 0.1, 0.25 and 0.5 g per kg mouse. The G600™ milk fat extract precursor (Batch 2, freeze dried, no added lactose) was incorporated into rodent chow at 12.5, 25, 50 and 100% of total fat in diet.
The murine urate peritonitis protocol was based on the model described by Getting et al (1997). Adult male CD1 mice weighing 22-28 g were selected for the urate peritonitis model. Mice were anaesthetized using urethane. Peritonitis was induced by intraperitoneal injection of 3 mg MSU crystals resuspended in 250 μl PBS. The body temperature of anaesthetized mice was monitored and maintained at 37° C. using a heat pad, and hydration was maintained by subcutaneous injection of 0.9% NaCl (Normal Saline) at a volume of […] body weight two hours after initial treatments and every hour thereafter. […]

In data set [1] the test system is IL-1β. The data set can be described thus: THP-1 cell assay analysed by ELISA, MSU crystal-stimulated IL-1β release. Format: cell-based. The settings on record: THP-1 cells. As for the experimental part: (§1) THP-1 cells were cultured in RPMI with 10% FCS, penicillin, streptomycin, glutamine and pyruvate. At day −1, 1.5×10^6 THP-1 cells were plated in 24 well plates. These cells were cultured in the presence or absence of 5 μM phorbol 12-myristate 13-acetate (PMA) for three hours. PMA is required for NALP-3 inflammasome activation and IL-1β production in response to MSU crystals. On day 0, medium was replaced in all wells. Cells were then pre-incubated with vehicle control, test substance at three concentrations, or diclofenac control (10 μg/ml) for 4 hours. MSU crystals were then added (0.5 mg/mL) Supernatants were harvested for ELISA after 16 hours. ELISA was conducted to determine inhibition of IL-1β expression. It has been reported that this cytokine is a pivotal regulator of the inflammatory response to MSU crystals (Chen et al 2006 and Martinon et al 2006). Inhibition of IL-8 expression was also determined.
(§2) A mean change in cytokine expression from cells treated with control vehicle pooled data from all experiments (10 μg/ml). Values represent mean (standard error) from at least three experiments in which cytokine release from wells treated with the highest concentration of milk extract has been normalized to vehicle treated wells.
(§3) The results are shown in Table 2 below and in FIGS. 1 and 2. Table 3 contrasts the result for GMP when the MSU was replaced with a different antigen, LPS. […]

Data set [2] relates to IL-1β. In words: THP-1 cell assay analysed by ELISA, MSU replaced with LPS, IL-1β production. It counts as cell-based. The settings on record: THP-1 cells, normalized to vehicle. Here is the method:
as §1
The results are shown in Table 2 below and in FIGS. 1 and 2. Table 3 contrasts the result for GMP when the MSU was replaced with a different antigen, LPS. The casein hydrolysate tested was produced by extensively hydrolysing casein (to a degree of hydrolysis of 33%) using the enzymes pancreatin and corolase. […]
A general note: In an ELISA, binding on a coated surface is turned into a signal by an enzyme label.

A further data set has as its system IL-8. The data set can be described thus: THP-1 cell assay analysed by ELISA, MSU crystal-stimulated IL-8 release. Format: cell-based. The settings on record: THP-1 cells, PMA, 4 h pre-incubation, MSU crystals 0.5 mg/mL, supernatant after 16 h; highest concentration of test substance; mean of at least three experiments; * p<0.05 vs vehicle. As for the experimental part:
as §1, §2, §3

For another data set, the system named is IL-1β gene expression. In words: THP-1 cell assay analysed by RT-PCR, IL-1β gene expression. Format: cell-based. The settings on record: THP-1 cells, treatment as in Example 1 (FIG. 5). The text has this:
THP-1 assays were used to study IL-1β and IL-8 gene expression by RT-PCR, using the same treatment protocols as described for the THP-1 ELISA assay in Example 1 above and the RT-PCR protocol described in Dalbeth et al, 2008.

The conditions of data set [3]: cited from earlier work.

Turning to Glycomacropeptide [GMP], the “total cellular influx in the urate peritonitis model” value in the data set with urate peritonitis model is listed as “significant inhibition”. Also, the “IL-1β (cytokine release normalized to vehicle treated wells)” value in the data set on IL-1β [1] (PMA, 4 h pre-incubation, MSU crystals 0.5 mg/mL, supernatant after 16 h, highest concentration of test substance, mean of at least three experiments, * p<0.05 vs vehicle) is recorded as 0.72*. The “MSU crystal-stimulated IL-1β production” value with IL-1β [1] (normalized to vehicle, * p<0.05) is 0.72*. The “LPS-stimulated IL-1β production” value in the data set with IL-1β [2] was determined as 0.94. Further, in the data set on IL-8, the “IL-8 (cytokine release normalized to vehicle treated wells)” value is 1.22. Also, in the data set on IL-1β gene expression, the IL-1β gene expression result is reported as “inhibits”.

Take `COc1cc2c(c(OC)c1OC)-c1ccc(OC)c(=O)cc1[C@@H](NC(C)=O)CC2` [colchicine, Colchicine]: in data set [3] (all patients, within 24 hours of taking this medication), the adverse effects result is given as “developed diarrhoea and/or vomiting”. Moreover, the “reduction in pain in joints” value in data set [3] (gout patients, within 48 hours) is 50%.
